Measured values as given in US8173609B2, “Macrolides useful against inflammatory and allergic diseases” (Basilea Pharmaceutica AG, priority 2006, dated 2012).

Tested on: human PDE4
Assay: PDE4 inhibition, in vitro enzymatic IMAP FP assay
Type: biochemical
Details: for IC50: PDE4 partially purified from human monocytic U-937 cells, fluorescence polarization
Experimental: PDE4 specifically hydrolyzes cAMP and releases the product AMP. The potency of PDE inhibition by said agents was determined in an in vitro enzymatic assay. The assay is commercially available (IMAP™ FP assay Molecular Devices Corp.) and was optimized for the use of human PDE4. Fluorescently labeled cAMP was hydrolyzed by PDE4 and in a second step, binding of labeled product to a large binding partner allowed product detection by fluorescence polarization (FP) measurements.
PDE4 was partially purified from undifferentiated human monocytic cells (U-937) according to Thorpy et al. 1992 (J. Pharmacol. Exp. Ther. 263: 1195). […] In addition, PDE4 preparations were validated by inhibition studies with PDE4-specific and unspecific PDE inhibitors.
Stock solutions of test compounds were made in DMSO and diluted in assay buffer (10 mM Tris-HCl, 10 mM MgCl2, 0.1% BSA 0.05% NaN3, pH 7.2) to the desired concentrations. The solutions used in the assay contained test compound in assay buffer with 2% DMSO.
10 μl of substrate (at a concentration recommended by the manufacturer) were mixed with 5 μl of appropriately diluted PDE and 5 μl of test compound solution. 5 μl of reaction buffer with 2% DMSO were used for control reactions. […] After incubation for 90 minutes at room temperature, 60 μl of binding reagent were added as specified by the manufacturer. Binding was allowed to proceed for 30 minutes and fluorescence polarization was measured. Dose dependence of PDE inhibition was measured by assaying dilution series of test compounds in duplicates. IC50 values were determined from the measured activities by curve fitting.

Molecule: CCC1OC(=O)C(C)C(OC2CC(C)(OC)C(O)C(C)O2)C(C)C(OC2OC(C)CC(N(C)C)C2O)C(C)(OC)CC(C)C(=O)C(C)C2C(SCCn3c(CCc4cccnc4)nc4c(N)ncnc43)C(=O)OC12C (stereo not shown) [Example 1, compound of formula I where R1 is [2-[6-Amino-8-(2-pyridin-3-yl-ethyl)-purin-9-yl]ethyl]thio, R2 and R3 taken together form a C═O group and R4 is methyl]
- IC50: 13.4 µM

Molecule: CCC1OC(=O)C(C)C(OC2CC(C)(OC)C(O)C(C)O2)C(C)C(OC2OC(C)CC(N(C)C)C2O)C(C)(OC)CC(C)C(=O)C(C)C2C(SCCn3c(Nc4cccnc4)nc4c(N)ncnc43)C(=O)OC12C (stereo not shown) [Example 2, compound of formula I where R1 is [2-[6-Amino-8-(pyridin-3-ylamino)-purin-9-yl]ethyl]thio, R2 and R3 taken together form a C═O Group and R4 is Methyl]
- IC50: 3.9 µM

Molecule: CCC1OC(=O)C(C)C(OC2CC(C)(OC)C(O)C(C)O2)C(C)C(OC2OC(C)CC(N(C)C)C2O)C(C)(OC)CC(C)C(=O)C(C)C2C(SCCN(C(=O)c3ccncc3)c3ccc(OC)c(OC4CCCC4)c3)C(=O)OC12C (stereo not shown) [Example 3, Compound of Formula I where R1 is [2-[(3cyclopentyloxy-4-methoxy-phenyl)-(pyridin-4-yl-carbonyl)-amino]ethyl]thio, R2 and R3 taken together form a C═O Group and R4 is Methyl]
- IC50: 3.4 µM

Molecule: CCC1OC(=O)C(C)C(OC2CC(C)(OC)C(O)C(C)O2)C(C)C(OC2OC(C)CC(N(C)C)C2O)C(C)(OC)CC(C)C(=O)C(C)C2C(SCCN(Cc3ccncc3)c3ccc(OC)c(OC4CCCC4)c3)C(=O)OC12C (stereo not shown) [Example 4, compound of formula I where R1 is [2-[(3-cyclopentyloxy-4-methoxy-phenyl)-(pyridin-4-ylmethyl)-amino]-ethyl]thio, R2 and R3 taken together form a C═O Group and R4 is Methyl]
- IC50: 0.28 µM

Molecule: CCC1OC(=O)C(C)C(OC2CC(C)(OC)C(O)C(C)O2)C(C)C(OC2OC(C)CC(N(C)C)C2O)C(C)(OC)CC(C)C(=O)C(C)C2C(SCCN(Cc3cccnc3)c3ccc(OC)c(OC4CCCC4)c3)C(=O)OC12C (stereo not shown) [Example 5, Compound of Formula I where R1 is [2-[(3-cyclopentyloxy-4-methoxy-phenyl)-(pyridin-3-ylmethyl)-amino]-ethyl]thio, R2 and R3 taken together form a C═O Group and R4 is Methyl]
- IC50: 0.85 µM

Molecule: CCC1OC(=O)C(C)C(OC2CC(C)(OC)C(O)C(C)O2)C(C)C(OC2OC(C)CC(N(C)C)C2O)C(C)(OC)CC(C)C(=O)C(C)C2C(SCCCc3c(C(=O)Nc4ccncc4)ccc(OC)c3OC)C(=O)OC12C (stereo not shown) [Example 7, Compound of Formula I where R1 is [3-[2,3-dimethoxy-6-(pyridin-4-yl-amino-carbonyl)phenyl]-propyl]thio, R2 and R3 taken together form a C═O Group and R4 is Methyl]
- IC50: 7.6 µM

Molecule: CCC1OC(=O)C(C)C(OC2CC(C)(OC)C(O)C(C)O2)C(C)C(OC2OC(C)CC(N(C)C)C2O)C(C)(OC)CC(C)C(=O)C(C)C2C(SCCCn3cnc4c(N)ncc(C(=O)NCC(=O)OC)c43)C(=O)OC12C (stereo not shown) [Example 9, compound of formula I where R1 is [3-[4-amino-7-([methoxycarbonylmethyl]-amino-carbonyl)-imidazo[4,5-c]pyridin-1-yl]-propyl]thio, R2 and R3 taken together form a C═O Group and R4 is Methyl]
- IC50: 24.2 µM

Molecule: CC[C@H]1OC(=O)[C@H](C)[C@@H](O[C@H]2C[C@@](C)(OC)[C@@H](O)[C@H](C)O2)[C@H](C)[C@@H](O[C@@H]2O[C@H](C)C[C@H](N(C)C)[C@H]2O)[C@](C)(OC)C[C@@H](C)C(=O)[C@H](C)[C@H]2[C@H](SCCn3cnc4c(N)ncc(C(=O)Nc5ccncc5)c43)C(=O)O[C@@]21C [Example 10, Compound of Formula I where R1 is [2-[4-amino-7-(pyridin-4-yl-amino-carbonyl)-imidazo[4,5-c]pyridin-1-yl]-ethyl]thio, R2 and R3 taken together form a C═O Group and R4 is Methyl]
- IC50: 1 µM

Molecule: CC[C@H]1OC(=O)[C@H](C)[C@@H](O[C@H]2C[C@@](C)(OC)[C@@H](O)[C@H](C)O2)[C@H](C)[C@@H](O[C@@H]2O[C@H](C)C[C@H](N(C)C)[C@H]2O)[C@](C)(OC)C[C@@H](C)C(=O)[C@H](C)[C@H]2[C@H](SCCn3cnc4c(N)ncc(C(=O)Nc5c(Cl)cncc5Cl)c43)C(=O)O[C@@]21C [Example 11, compound of formula I where R1 is [2-[4-amino-7-(3,5-dichloro-pyridin-4-yl-amino-carbonyl)-imidazo[4,5-c]pyridin-1-yl]-ethyl]thio, R2 and R3 taken together form a C═O Group and R4 is Methyl]
- IC50: 0.008 µM
- IC50(PDE4) relative to the IC50(PDE4) for the macrolide substituent in free form (ratio of Example 11 IC50 to IC50 of free substituent drawing 48): about one five hundredth

Molecule: CC[C@H]1OC(=O)[C@H](C)[C@@H](O[C@H]2C[C@@](C)(OC)[C@@H](O)[C@H](C)O2)[C@H](C)[C@@H](O[C@@H]2O[C@H](C)C[C@H](N(C)C)[C@H]2O)[C@](C)(OC)C[C@@H](C)C(=O)[C@H](C)[C@H]2[C@H](SCCn3cnc4c(N)nc(NCc5cccnc5)nc43)C(=O)O[C@@]21C [Example 12, Compound of Formula I where R1 is [2-[6-amino-2-[[(3-pyridyl)methyl]amino]-purin-9-yl]ethyl]thio, R2 and R3 taken together form a C═O Group and R4 is Methyl]
- IC50: 3.8 µM

Molecule: CC[C@H]1OC(=O)[C@H](C)[C@@H](O[C@H]2C[C@@](C)(OC)[C@@H](O)[C@H](C)O2)[C@H](C)[C@@H](O[C@@H]2O[C@H](C)C[C@H](N(C)C)[C@H]2O)[C@](C)(OC)C[C@@H](C)C(=O)[C@H](C)[C@H]2[C@H](SCCn3cnc4c(N)nc(NCc5ccncc5)nc43)C(=O)O[C@@]21C [Example 13, Compound of Formula I where R1 is [2-[6-amino-2-[[(4-pyridyl)methyl]amino]-purin-9-yl]ethyl]thio, R2 and R3 taken together form a C═O Group and R4 is Methyl]
- IC50: 2.6 µM

Molecule: CC[C@H]1OC(=O)[C@H](C)[C@@H](O[C@H]2C[C@@](C)(OC)[C@@H](O)[C@H](C)O2)[C@H](C)[C@@H](O[C@@H]2O[C@H](C)C[C@H](N(C)C)[C@H]2O)[C@](C)(OC)C[C@@H](C)C(=O)[C@H](C)[C@H]2[C@H](SC)C(=O)O[C@@]21C [reference compound]
- PDE4-inhibiting activity (up to a concentration of 50 μM in the assay used in the examples): does not show any PDE4-inhibiting activity

Molecule: CSCCn1cnc2c(N)ncc(C(=O)Nc3c(Cl)cncc3Cl)c21 [reference compound]
- IC50: 3.6 µM

Molecule: compound of formula I where R1 is [2-[(5-(3,5-dichloro-pyridin-4-yl-amino-carbonyl)-1-ethyl-1H-pyrazolo[3,4-b]pyridin-4-ylamino]-ethyl]thio, R2 and R3 taken together form a C═O Group and R4 is Methyl [Example 6]
- IC50: 0.37 µM

Molecule: compound of formula I where R1 is [3-[4-Amino-7-(pyridin-4-yl-amino-carbonyl)-imidazo[4,5-c]pyridin-1-yl]-propyl]thio, R2 and R3 taken together form a C═O Group and R4 is Methyl [Example 8]
- IC50: 4.7 µM
